Measured values reported in US20180064829A1, “FLUORESCENT BISPHOSPHONATE ANALOGS” (University of Southern California, priority 2015, published 2018).

Columns and labels:
[1] = system: unprenylated Rap1A (uRap1A); test: Prenylation assay: Western blot for unprenylated Rap1A in J774.2 macrophages; type: cell-based, mouse; conditions: 10 or 100 μM, 24 h, FIG. 5A-C
[2] = UV-VIS absorption and fluorescence emission spectra; type: physicochemical; conditions: 0.1M phosphate buffer (1x PBS for 7d5); ± 1 nm error
[3] = pH 7.2, 0.1M phosphate buffer; assumed the same as the corresponding fluorescent dye; cited from earlier work
[4] = system: bone resorption; conditions: rat model in vivo, ref. [15a]; cited from earlier work
[5] = parent compounds, ref. [23]; cited from earlier work
[6] = RIS; not covered by the MarvinSketch note; cited from earlier work
[7] = pKa and protonation status of the heterocyclic nitrogen; type: physicochemical; conditions: pH 6.0; calculated by Henderson-Hasselbalch equation
Excerpt: The nucleophilicity and Lewis basicity of the nitrogen atom of the three heterocyclic N-BPs studied in this report vary, and these properties appear to be the major determinants of their conjugation reactivity. Thus, the ‘magic linker’ methodology for RIS required modification for ZOL (1d), MIN (1e), and their related analogues (1f). […] The protonation status of the heteroatom at different pH is also critical to the reactivity. […] Under such conditions, more than 50% (˜71.3% calculated) of the nitrogen of RIS will be deprotonated, and able to attack the epoxide ring nucleophilically. However, at pH 6.0, only 18% of the nitrogen of ZOL (22% for MIN) is deprotonated, thus the reactions were very slow (2d) at pH 6.0. At pH 7.0-7.5, reaction was more rapid, but the regioselectivity (N-alkylation vs. O-alkylation) for 1d, 1e, 1f was not as good as for RIS and its analogues (1a, 1b, 1c); 10-20% of side products could be observed, which were confirmed by HPLC, NMR and MS to be the products of N,O(P)-dialkylation (O-alkylation occurs between the phosphonate/carboxylate group of the drug and the epoxide). The reaction rate of MinPC (1f)-epoxide (5) coupling was even slower than ZOL under the same reaction conditions (same reactant ratio, pH 7.5, 40-45° C.), which might be due to a steric effect from the large heterocycle. In addition, the percent of side products was higher and O-alkylation products were also observed in the reaction mixture.
The following publications are incorporated by reference herein in their entirety: • [1] a) R. G. G. Russell, N. B. Watts, F. H. Ebetino, M. J. Rogers, Osteoporos. Int. 2008, 19, 733-759; b) F. Ebetino, A. Hogan, S. Sun, M. Tsoumpra, X. Duan, J. Triffitt, A. Kwaasi, J. Dunford, B. Barnett, U. Oppermann, M. Lundy, A. Boyde, B. Kashemirov, C. McKenna, R. Russell, Bone 2011, 49 20-33. • [2] a) I. Reid, M. Bolland, A. Grey, Bone 2007, 41, 318-320; b) A. Siddiqi, A. Payne, S. Zafar, Oral Surg. Oral Med. Oral Pathol. Oral Radiol. Endod. […]

Structure (SMILES)	accumulation of unprenylated Rap1A (anti-prenylation activity) [1]	Maximum absorption wavelength (λmax (abs), nm) [2]	Maximum emission wavelength (λmax (em), nm) [2]	Extinction coefficient [3]	Anti-resorptive activity [4]	rank order of mineral binding affinity [5]	pKa of the heterocyclic nitrogen [6]	fraction of the heterocyclic nitrogen deprotonated [7]
O=C(NCC(O)C[n+]1ccn(CC(O)(P(=O)(O)O)P(=O)(O)O)c1)c1ccc(-c2c3ccc(=O)cc-3oc3cc(O)ccc23)c(C(=O)O)c1 (centres unmarked) [Compound 5-FAM-ZOL, 3-(3-(3-carboxy-4-(6-hydroxy-3-oxo-3H-xanthen-9-yl)benzamido)-2-hydroxypropyl)-1-(2-hydroxy-2,2-diphosphonoethyl)-1H-imidazol-3-ium]	retain some activity, although their potencies are weaker than native ZOL	493 nm	521 nm	73,000 (pH 7.2) M^−1cm^−1	demonstrated	–	–	–
O=P(O)(O)C(O)(Cc1cccnc1)P(=O)(O)O [RIS, (1-hydroxy-2-pyridin-3-ylethane-1,1-diyl)bis(phosphonic acid)]	–	–	–	–	–	RIS>dRIS>RISPC	5.67	~71.3%
